Experiment: Pharmacokinetics after oral gavage in mice
Conditions: 10 mg/kg
Procedure: Concentrations of drugs and lipids were simultaneously quantified by a ACQUITY UPLC H-Class System (Waters, Milford, MA)^15. The mobile phase was composed of solvent A: 0.1% trifluoroacetic acid (TFA) in water and solvent B: 0.1% TFA in methanol. […] Concentrations of drugs and lipids were measured by integrating the peak area under the curve and compared to the standard curves. For plasma CQ quantitation, a Waters QDa mass spectrometry detector was used. Ionization was carried out at 250° C.
MLV-CQ drug formulation of the present invention or free CQ (dissolved in saline) was administered through oral gavage to mice at 10 mg CQ/kg (50 mg lipid/kg). […] Plasma was isolated by centrifugation at 4° C. for 10 min at 10,000 g. Forty-five L of plasma was mixed with 300 μL ethanol, vortexed for 30 s, placed on ice for 30 min, and centrifuged twice at 12,500 rpm for 5 min. The supernatant (280 μL) was collected, lyophilized, and reconstituted in 45 μL ethanol. Ten L of the sample was then injected into the UPLC to measure CQ concentration. Pharmacokinetics parameters and AUC were analyzed using PK solver^16 and GraphPad Prisim version 8.0 (GraphPad Software, San Diego, CA, USA), respectively.

For `CCN(CC)CCCC(C)Nc1ccnc2cc(Cl)ccc12` (stereo not shown) [CQ solution, chloroquine diphosphate], the “CQ in plasma at 24 h” value was “completely eliminated”.
